# Source: paper PMC8234734, “Pharmacokinetics and Molecular Modeling Indicate nAChRα4-Derived Peptide HAEE Goes through the Blood–Brain Barrier” (Biomolecules, 2021)
# Legend:
# [1] = Pharmacokinetics of HAEE in rat blood after single i.v. bolus (dose dependence, chronic administration); conditions: for ClT (total body clearance) / Kel (elimination rate constant, central compartment) / MRT (residence time) / Vd(c) (volume of distribution in the central compartment at Cmax) / Vd(extrap) / Vd(β) (volume of distribution in the elimination phase): rat, n = 6
# Description: In experiments on rats (Table 1, experimental groups 2–5), intravenous (i.v.) administration of the peptide and blood sampling were performed through the jugular veins. For this, in rats anesthetized with a mixture of ketamine (91 mg/kg) and xylazine (9.1 mg/kg), on the ventral side, in the area adjacent to the forelimbs and neck, two longitudinal skin incisions about 2.5 cm long were made on the right and left, and the jugular veins were dissected. An intravenous Flexicath G24 catheter (for heparin and peptide administration) (Medica LLC, Ivanovo, Russia) was installed in the left jugular vein and Flexicath G22 (for blood collection) in the right jugular vein. To prevent blood coagulation, 80 μL of heparin (5000 I.U./mL) was injected through the Flexicath G24 port before the injection of the peptide, and after 5 min a mixture of HAEE and [^3H]HAEE (400 μCi, in doses of 50, 300 or 900 μg/kg) in 200 μL of saline solution was injected for 10–15 s. Following that, after 2, 4, 6, 10, 20 and 30 min, approximately 0.3 mL of venous blood was collected into pre-weighed plastic tubes. After collection, the blood tubes were immediately frozen in liquid nitrogen and weighed. Before the pharmacokinetic study, rats in experimental group 5 were injected daily with i.p. peptide HAEE at a dose of 300 μg/kg for 28 days.
# (§1) Frozen and weighed tissue samples in plastic tubes were freeze-dried for 48 h. The freeze-dried tissue samples were heated at 65 °C for 30 min, after which they were homogenized, and the peptide fraction was extracted with 90% aqueous acetonitrile containing 1% TFA [13]. To facilitate HPLC analysis of radioactively labeled HAEE and normalize the loss of the peptide during extraction, 10 μg of HAEE was added to the extraction solution for each sample. After centrifugation, the solution containing HAEE and blood components was dried under reduced pressure, stripped with methanol and re-centrifuged. The resulting solution containing a mixture of HAEE and [^3H]HAEE was subjected to evaporation under reduced pressure, re-extraction with 0.1% aqueous TFA solution and subsequent centrifugation. Quantitative analysis of the HAEE peptide was performed using HPLC on a Kromasil C18 column, 4 × 150 mm (Nouryon-Separation Products, Bohus, Sweden) in methanol concentration gradient (12–26% for 13 min), in 0.1% HFBA (heptafluorobutyric acid). The fraction containing the HAEE peptide was collected and its [^3H]HAEE content was determined by liquid scintillation counting. The obtained radioactivity value was normalized to the area of the HAEE peak in the chromatogram (UV absorbance at 220 nm).
# (§2) To calculate the pharmacokinetic parameters, we used the values of HAEE peptide concentrations in blood and tissues averaged over three (rabbit) or six (rats and mice) animals. All quantitative values are given as means ± standard deviation. The calculation of pharmacokinetic parameters was performed by combining the model and non-model approaches using the software Borgia 1.03 (NPP Nauka Plus, Rovno, Ukraine) and SigmaPlot 11.0 (Systat Software, San Jose, CA, USA).
# [2] = In vitro stability assay of HAEE in human plasma; format: in vitro ADME; conditions: 1 mM in PBS, 20 µL diluted in 80 µL fresh human plasma, 37 °C, 24 h, MeOH precipitation, RP-HPLC UV 205 nm; data not shown
# Description: An in vitro assay of the unlabeled peptide stability was performed as described in [19]. Briefly, HAEE was prepared as a 1 mM solution in phosphate-buffered saline and 20 µL of the peptide solution was diluted in 80 µL of human plasma (freshly taken). The solution was incubated at 37 °C for different times, and the reaction was stopped by adding the Roche cOmplete Protease Inhibitor Cocktail (Roche Molecular Biochemicals, Mannheim, Germany). The bulk of the plasma proteins (but none of the peptide) was precipitated in cold methanol (1:4 (v/v) mixture/MeOH) for 1 h at […]. The precipitated proteins were pelleted by centrifugation at 10,000× g for 10 min at 4 °C. The supernatant containing the peptide was concentrated five times under vacuum and separated by RP-HPLC. The area of the peak (UV absorbance at 205 nm) corresponding to the intact peptide was measured and compared with an equivalent sample incubated in phosphate-buffered saline.
# [3] = Pharmacokinetics of HAEE in rabbit blood after single i.v. bolus; format: in vivo
# Description: In experiments on rabbits (Table 1, experimental group 1), peptide administration and blood sampling were performed through the large ear veins. To restrict movement, the rabbit was placed in a restrainer with a head hole. Into the right ear, through the large ear vein, 4000 IU of heparin (FSUE “Moscow Endocrine Plant”, Moscow, Russia) in 0.8 mL of saline solution was injected using an insulin syringe, and after 5 min a Flexicath G22 intravenous catheter (Medica LLC, Ivanovo, Russia) was installed into the large ear vein of the left ear for subsequent blood sampling.
# A 0.5 mL of the mixture of HAEE and [^3H]HAEE (2000 µCi, at a dose of 120 µg/kg) was injected with an insulin syringe into the right ear vein for 10–15 s, and after 2, 4, 6, 10, 20, 30, 60, 90 and 120 min, approximately 0.5 mL of venous blood was collected through the catheter and placed into pre-weighed plastic tubes. Immediately after collection, blood tubes were frozen in liquid nitrogen and weighed.
# as §1, §2
# Taking this into account, to determine the pharmacokinetic characteristics of HAEE after systemic administration to rabbits, we analyzed the peptide content in the blood for a long period of time, from 2 to 120 min. The peptide was administered i.v. at a dose of 120 μg/kg.
# [4] = Distribution of HAEE in mouse tissues after i.p. bolus; format: in vivo; conditions: mice, i.p. bolus 300 μg/kg
# Description: In the experiments on mice (Table 1, experimental group 6), a mixture of HAEE and [^3H]HAEE (50 µCi, at a dose of 300 µg/kg) in 200 µL of saline solution was injected intraperitoneally. The animals were decapitated at the end of the period specified by the protocol; blood and studied tissues were collected in weighed plastic tubes, frozen with liquid nitrogen and weighed. When calculating the volumetric concentrations of the total amount of the HAEE peptide (labeled, unlabeled or their mixture) in the blood, the density of the blood was taken equal to 1.056 g/mL [12].
# All quantitative values are given as means ± standard deviation.
# Within the study, bioavailability of HAEE for several organs and tissues was analyzed with i.p. bolus administration to mice at a dose of 300 μg/kg. The quantity of HAEE in the blood, brain, kidneys, liver, heart and omentum was determined at 2, 4, 6, 10, 15 and 20 min after peptide administration. For all tissues, similar changes in the concentrations of HAEE over time were observed (Figure 3A–C). These were characterized by a bimodal relationship with peaks at 4 and 10–15 min.
# Tissue bioavailability of HAEE for the brain was about 3%, which is typical for most pharmacological substances. […] This may indicate accumulation of HAEE in the brain parenchyma due to its active transfer through the BBB and further binding and retention at the affinity sites of neuronal protein targets.
# [5] = system: rats; test: Observation of toxic effects after repeated administration to rats; conditions: administered repeatedly (daily for 28 days, 300 μg/kg)
# [6] = rabbit blood, single i.v. bolus 120 μg/kg, n = 3
# [7] = rabbit, single i.v. bolus 120 μg/kg, n = 3
# [8] = blood, brain, kidneys, liver, heart, omentum
substance,measurement,setting,value
Acetyl-His-Ala-Glu-Glu-Amide [HAEE],ClT (total body clearance),[1]; single i.v. bolus 300 μg/kg,9.3 mL/min
same,"Kel (elimination rate constant, central compartment)",[1]; single i.v. bolus 300 μg/kg,0.031 min⁻¹
same,MRT (residence time),[1]; single i.v. bolus 300 μg/kg,32 min
same,Vd(c) (volume of distribution in the central compartment at Cmax),[1]; single i.v. bolus 300 μg/kg,122 mL
same,Vd(extrap),[1]; single i.v. bolus 300 μg/kg,296 mL
same,Vd(β) (volume of distribution in the elimination phase),[1]; single i.v. bolus 300 μg/kg,299 mL
same,ClT (total body clearance),[1]; single i.v. bolus 900 μg/kg,6.7 mL/min
same,"Kel (elimination rate constant, central compartment)",[1]; single i.v. bolus 900 μg/kg,0.028 min⁻¹
same,MRT (residence time),[1]; single i.v. bolus 900 μg/kg,36 min
same,Vd(c) (volume of distribution in the central compartment at Cmax),[1]; single i.v. bolus 900 μg/kg,108 mL
same,Vd(extrap),[1]; single i.v. bolus 900 μg/kg,291 mL
same,Vd(β) (volume of distribution in the elimination phase),[1]; single i.v. bolus 900 μg/kg,237 mL
same,Effect of chronic administration on accumulation and pharmacokinetics,"[1]; rats, 28 days daily 300 μg/kg then i.v. bolus 300 μg/kg, n = 6 vs intact rats n = 6",does not cause its accumulation in rats and does not affect the nature of its pharmacokinetics
same,Stability in human plasma (intact peptide peak area vs sample in PBS),[2],no significant degradation
same,Cmax (maximum concentration in the blood),"[3]; rabbit blood, single i.v. bolus 120 μg/kg HAEE + [3H]HAEE, n = 3, sampling 2-120 min, HPLC + liquid scintillation",255 ng/mL
same,T1/2(el) (elimination half-life),[3]; [6],20 min
same,Tmax,[3]; [6],4 min
same,AUC(0–∞),"[3]; rabbit blood, single i.v. bolus 120 μg/kg, n = 3, 0-4 min by trapezoidal method",4421 (ng/mL) × min
same,ClT (total body clearance),[3]; [7],100 mL/min
same,"Kel (elimination rate constant, central compartment)",[3]; [7],0.035 min⁻¹
same,MRT (residence time),[3]; [7],29 min
same,Vd(c) (volume of distribution in the central compartment at Cmax),[3]; [7],862 mL
same,Vd(extrap),[3]; [7],3194 mL
same,Vd(β) (volume of distribution in the elimination phase),[3]; [7],2860 mL
same,"AUC(0–20), blood","[4]; blood, 0–20 min, n = 6 per time point, [3H]HAEE",2110 (ng/g) × min
same,"fT × 100%, brain",[4]; brain,about 3%
same,"AUC(0–20), brain","[4]; brain, 0–20 min, n = 6 per time point",70 (ng/g) × min
same,"AUC(0–20), heart","[4]; heart, 0–20 min, n = 6 per time point",845 (ng/g) × min
same,"AUC(0–20), kidney","[4]; kidney, 0–20 min, n = 6 per time point",3437 (ng/g) × min
same,"AUC(0–20), liver","[4]; liver, 0–20 min, n = 6 per time point",777 (ng/g) × min
same,"AUC(0–20), omentum","[4]; omentum, 0–20 min, n = 6 per time point",395 (ng/g) × min
same,Time of first peak of HAEE concentration in tissues (bimodal relationship),[4]; [8],4 min
same,Time of second peak of HAEE concentration in tissues (bimodal relationship),[4]; [8],10 to 15 min
same,Visible toxic effects and abnormalities in animal behavior,[5],did not cause visible toxic effects and abnormalities in animal behavior
